Test results published in patent publication US20240058316A1, “PRODRUG OF A PHENOLIC TRPV1 AGONIST FOR THE TREATMENT OF PAIN” (Concentric Analgesics, Inc., priority 2020, published 2024).
Each block holds one compound with its values, some of them ahead of it.

How the values were obtained:
[1] = background statement; cited from earlier work
[2] = Aqueous solubility (descriptive statement); format: physicochemical
[3] = test system: pain following TKA surgery; assay: Phase 1/2 randomized, double-blind, placebo-controlled study in patients undergoing total knee arthroplasty (TKA); format: in vivo, human
[4] = test system: postoperative pain after a bunionectomy; assay: Phase 2 randomized, double-blind, placebo-controlled study in subjects undergoing bunionectomy; format: in vivo, human; conditions: for reduction in opioid consumption: FIG. 3
Protocol: Compound 1 was investigated as a potential therapy for treatment of pain following bunionectomy. Compound 1 was administered (injected and instilled) directly into the postoperative wound during the surgery. This study is a follow-on placebo-controlled efficacy and safety study which includes assessments of wound healing and a PK study in enrolled subjects.
• This trial was designed to determine the efficacy of study treatment (Compound 1 vs. placebo) infiltrated/instilled during surgery in treating postoperative pain after a bunionectomy in the setting of multimodal analgesia in addition to a Mayo block with bupivacaine in the first 24 h (FIG. 1).
Protocol: This Phase 2, multi-center, randomized, double-blind, placebo-controlled, parallel design study evaluated a single dose of one of three Compound 1 dose groups vs. placebo injected during an elective BUNX with a multimodal analgesia regimen including an NSAID and regional Mayo block with bupivacaine. The study was conducted in two parts: • Inpatient period which continued to 96h after completion of study treatment injection (TO) or T96h. • Outpatient period which began on discharge from the inpatient unit through various follow visits to D29±2 (W4) after surgery, or if necessary for ongoing safety assessments, to D36±2 (W5).
Subjects underwent unilateral transpositional first metatarsal osteotomy for the correction of hallux valgus deformity (bunionectomy or BUNX). The surgery was performed under light to moderate sedation anesthesia (what constitutes this level of sedation and the additional anesthetic medications used per discretion of the anesthesiologist). In accordance with standard of care, light to moderate sedation was supplemented with a Mayo block to produce surgical anesthesia and postoperative analgesia. After administering light to moderate sedation, but prior to surgery, performed a Mayo block by infiltrating 0.5% bupivacaine hydrochloride (up to 30 mL total volume, 150 mg) at least 3 cm proximal to the “surgical site”. The Mayo block was performed at 15-30 minutes prior to study treatment dosing. “Surgical site” is defined as the area extending approximately 2-3 cm in all directions (lateral/medial/proximal/distal) from the incision site and surrounding tissues which may be affected by the infiltration of study treatment.
After the surgery, subjects were monitored for 96 hours in an inpatient unit. Safety and efficacy evaluations were performed. […] Subjects were required to meet certain pre-specified criteria prior to discharge.
T0 is the time that the study treatment injection/instillation is completed.
Following surgery, subjects were transferred to the appropriate recovery unit where they underwent various assessments over the next 96 hours (end of surgery [EOS] to T96h). In addition to the Mayo block noted above, a multimodal analgesia regimen included the following during the immediate postoperative period: • Ketorolac 30 mg IV (a non-steroidal anti-inflammatory drug (NSAID) to be administered intraoperatively before the end of surgery. Per investigator discretion, adjust the dose as necessary for subject age and medical condition. • Acetaminophen 1000 mg IV to be administered intraoperatively before the end of surgery.
After the non-opioid analgesics noted above has been administered, no additional NSAIDs or acetaminophen were administered during the inpatient phase of the study (through T96h). Additionally, the following rescue medication was able to be administered for any moderate to severe breakthrough pain during the inpatient period: • PO oxycodone 5 mg prn q2h in the first 12 hours after surgery for moderate or severe pain (≥4) as reported by subjects using the 0 to 10 numerical rating scale of current pain intensity (NRS). • PO oxycodone 5 mg prn q4h from 12 to 96 hours after surgery for moderate or severe pain (NRS≥4).
After surgery, subjects were monitored for 96 hours (through T96h) at the trial site as an inpatient.

[5] = test system: pain in subjects undergoing surgery to repair a ventral hernia; assay: Randomized, double-blind, placebo-controlled study in subjects undergoing ventral hernia repair (laparotomy); format: in vivo, human
[6] = bunionectomy, 4.2 mg (0.3 mg/mL)

SMILES: COc1cc(CNC(=O)CCCC/C=C/C(C)C)ccc1O [Capsaicin]
solubility in aqueous media or local anesthetic solutions [1]: virtually insoluble

water solubility [2]: highly water-soluble
SMILES: CNCC1CCCCN1C(=O)Oc1ccc(CNC(=O)CCCC/C=C/C(C)C)cc1OC (stereo not shown) [Compound 1, (E)-2-methoxy-4-((8-methylnon-6-enamido)methyl)phenyl 2-((methylamino)methyl)piperidine-1-carboxylate]
reductions in pain ([3]; 36 mg (0.3 mg/mL), FIG. 7): long lasting reductions in pain
reduction in opioid consumption ([3]; 36 mg (0.3 mg/mL), FIG. 8): significant reduction in opioid consumption
analgesic activity ([3]; 60 mg (0.5 mg/mL), compared with 36 mg): lower analgesic activity which was of a shorter duration
pain reduction ([4]; bunionectomy, 0.15 mg/mL (2.1 mg), FIG. 2): trend in pain reduction
reduction in opioid consumption ([4]; bunionectomy, 2.1 mg (0.15 mg/mL)): statistically significant reduction in opioid consumption
reduction in pain [4, 6]: statistically significant reduction in pain
reduction in opioid consumption [4, 6]: statistically significant reduction in opioid consumption
persistence of analgesic effect ([4]; bunionectomy, 4.2 mg, FIG. 4): ≥ 15 days
dose of maximum analgesic effect ([4]; bunionectomy, concentration of 0.3 mg/mL): 4.2 mg
reductions of pain and opioid consumption ([4]; single administration during surgery, bunionectomy patients): long lasting reductions of pain and opioid consumption
reductions in pain ([5]; 36 mg (0.3 mg/mL)): long lasting reductions in pain
reduction in pain at rest compared to placebo ([5]; 36 mg (0.3 mg/mL), FIG. 9): 21%
reduction in pain with coughing compared to placebo ([5]; 36 mg (0.3 mg/mL), FIG. 9): 46%
reduction in opioid consumption compared to placebo ([5]; FIG. 9): 26%
